According to ChEMBL document CHEMBL1126029, “Definition and display of steric, hydrophobic, and hydrogen-bonding properties of ligand binding sites in proteins using Lee and Richards accessible surface: validation of a high-resolution graphical tool for drug design” (J Med Chem, 1992):

Each compound was assayed against T1, Thermolysin (Bacillus thermoproteolyticus, UniProt P00800) (assay: Inhibitory constant against thermolysin.).
T1 sequence (P00800 whole entry): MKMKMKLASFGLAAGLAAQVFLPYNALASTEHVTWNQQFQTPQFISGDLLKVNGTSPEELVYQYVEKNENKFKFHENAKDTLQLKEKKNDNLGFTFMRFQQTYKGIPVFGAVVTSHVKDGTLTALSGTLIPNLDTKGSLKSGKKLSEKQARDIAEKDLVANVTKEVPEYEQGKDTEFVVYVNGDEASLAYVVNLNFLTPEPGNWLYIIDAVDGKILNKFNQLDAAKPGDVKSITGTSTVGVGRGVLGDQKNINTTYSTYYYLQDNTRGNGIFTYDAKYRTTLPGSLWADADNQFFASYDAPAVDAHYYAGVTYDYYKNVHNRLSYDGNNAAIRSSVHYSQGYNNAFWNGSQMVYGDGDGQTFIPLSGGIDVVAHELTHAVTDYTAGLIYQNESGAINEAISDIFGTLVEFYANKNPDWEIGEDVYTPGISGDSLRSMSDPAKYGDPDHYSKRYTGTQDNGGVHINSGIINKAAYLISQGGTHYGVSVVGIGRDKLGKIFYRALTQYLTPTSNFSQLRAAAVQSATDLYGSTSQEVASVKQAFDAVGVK

| Ki [nM] | SMILES |
| --- | --- |
| 9.1 | CC(C)C[C@H](NC(=O)[C@H](CC(C)C)NC(=O)CN(C(=O)OCc1ccccc1)P(=O)(O)O)C(=O)O |
| 50 | CC(C)C[C@H](NC(CCCc1ccccc1)C(=O)O)C(=O)N[C@@H](Cc1c[nH]c2ccccc12)C(=O)O (some centres not stated) |
| 2300 | O=C(O)CC(=O)N[C@@H](CS)Cc1ccccc1 |
| 750 | C[C@H](NC(=O)C(CS)Cc1ccccc1)C(=O)NCC(N)=O (some centres not stated) |

| SMILES | Ki [nM] |
| --- | --- |
| CC(C)C[C@H](NP(=O)(O)O)C(N)=O | 21300 |
| CC(C)C[C@H](NP(=O)(O)O[C@@H]1O[C@@H](C)[C@H](O)[C@@H](O)[C@H]1O)C(=O)N[C@@H](Cc1c[nH]c2ccccc12)C(=O)O [PHOSPHORAMIDON] | 28 |
| O=C(O)CNC(=O)C(CS)Cc1ccccc1 (configuration not stated) [THIORPHAN] | 1800 |
